Reference: patent publication US11365194B2, “Analgesic drug using PAC1 receptor antagonistic drug” (KAGOSHIMA UNIVERSITY, priority 2017, dated 2022)

Experiments:
[1] = Non Patent Literature 4; cited from earlier work
[2] = system: mechanical allodynia induced by PACAP intrathecal administration; experiment: Mechanical allodynia induced by PACAP intrathecal administration (von Frey test); format: in vivo, mouse; conditions: simultaneous i.t.
Procedure: When single i.t. administration of PACAP (100 pmol/5 L) to mouse was performed, mechanical stimulus sensitive phenomenon (mechanical allodynia) occurred over a long period of time (for at least three months after the administration) (Non Patent Literature 1). […] The mechanical sensitive phenomenon induced by PACAP was not suppressed in an example in which a solvent (VEH: 0.2% DMSO-containing artificial cerebrospinal fluid) was used instead of the compounds.
(§1) Male ddY mice (6 to 12 weeks old) were used, and the threshold to a mechanical stimulus was evaluated by the vonFrey test. Specifically, the 50% withdrawal reflex threshold (Threshold) was calculated in accordance with the method of Chaplan et al. (Chaplan et al., J. Neurosci. Meth. 53, 55-63, 1994). Each compound was dissolved in 99.7% DMSO, and then the resulting solution was diluted with an artificial cerebrospinal fluid for preparation (final concentration of DMSO was 0.2%).

[3] = molecular target: T1, mouse PAC receptor-expressing CHO cell (PAC1/CHO cell) (Mus musculus, UniProt P70205); experiment: CREB phosphorylation by PACAP stimulus, Western blot, PAC1/CHO cell; format: cell-based; conditions: for suppression of CREB phosphorylation by PACAP (1 nM): PAC1/CHO cell, compound 10 μM to 10 nM, 30 minutes before 1 nM PACAP; for effect of suppressing CREB phosphorylation compared with basic compound: at 1 nM, 2o versus PA-8, 3d versus PA-9, FIG. 3
T1 construct: expressed in transfected cells; host or cells: CHO cells
T1 sequence (P70205 21-496): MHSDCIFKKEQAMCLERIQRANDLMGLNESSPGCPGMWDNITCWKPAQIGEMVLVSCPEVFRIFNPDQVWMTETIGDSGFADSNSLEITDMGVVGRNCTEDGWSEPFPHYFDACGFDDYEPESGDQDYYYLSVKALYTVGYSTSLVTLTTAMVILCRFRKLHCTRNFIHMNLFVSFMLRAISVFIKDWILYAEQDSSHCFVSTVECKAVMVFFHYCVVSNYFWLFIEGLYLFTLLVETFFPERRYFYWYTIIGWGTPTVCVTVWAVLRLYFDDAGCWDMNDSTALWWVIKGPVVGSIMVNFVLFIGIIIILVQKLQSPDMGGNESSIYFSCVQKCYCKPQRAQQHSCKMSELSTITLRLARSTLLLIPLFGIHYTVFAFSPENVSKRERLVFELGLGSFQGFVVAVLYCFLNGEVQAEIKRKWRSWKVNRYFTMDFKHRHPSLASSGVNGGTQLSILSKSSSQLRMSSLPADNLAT
Procedure: The effect of each compound on the phosphorylation of CREB (cAMP-responsive element-binding protein) produced by a PACAP stimulus was examined by Western blot analysis using an anti-phosphorylated CREB (pCREB) antibody with a mouse PAC receptor-expressing CHO cell (PAC1/CHO cell) and a mouse VPAC1 receptor-expressing CHO cell (VPAC1/CHO cell).
Specifically, treatment with a compound (PA-8, PA-9, compounds 2j, 20 and 3d) at 10 μM to 10 nM or a solvent therefor (VEH: 0.1% DMSO-containing phosphate buffer solution) was performed for 30 minutes, 1 nM PACAP was then added, and protein was recovered within 30 minutes after a PACAP stimulus.

[4] = molecular target: T2, PAC1 receptor (Homo sapiens, UniProt P41586); conditions: Non Patent Literature 3; cited from earlier work
T2 sequence (P41586 21-468): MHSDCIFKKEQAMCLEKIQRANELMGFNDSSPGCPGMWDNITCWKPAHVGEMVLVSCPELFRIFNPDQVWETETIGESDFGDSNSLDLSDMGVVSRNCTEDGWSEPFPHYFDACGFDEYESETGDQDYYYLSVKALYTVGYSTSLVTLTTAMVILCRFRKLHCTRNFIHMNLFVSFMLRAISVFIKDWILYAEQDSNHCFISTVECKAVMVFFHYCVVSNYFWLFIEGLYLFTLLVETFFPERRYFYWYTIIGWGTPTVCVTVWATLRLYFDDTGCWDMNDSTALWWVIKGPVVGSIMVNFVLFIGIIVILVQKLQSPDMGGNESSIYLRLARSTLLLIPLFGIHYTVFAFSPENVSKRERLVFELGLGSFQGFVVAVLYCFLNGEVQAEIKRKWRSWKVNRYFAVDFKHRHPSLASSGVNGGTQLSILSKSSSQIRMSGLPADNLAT

[5] = system: mechanical allodynia induced by spinal nerve injury; experiment: Spinal nerve ligation (SNL) model, i.t. administration on 14th day, mechanical allodynia; format: in vivo, mouse; conditions: for anti-mechanical allodynia effect: 100 pmol i.t. on 14th day after operation
Procedure: as §1
Spinal nerve ligation (SNL) models in which the fourth lumbar cord spinal nerves of male ddY (6 to 12 weeks old) were ligated with silk thread were used. The i.t. administration of a solvent (VEH: 10% DMSO-containing saline), PA-8, the compound 2j or the compound 2o (FIG. 9A), or PA-9 or the compound 3d (FIG. 9B) was performed on the 14th day after the operation. The method of causing a mechanical stimulus is the same as that of Example 5, and data were acquired for 24 hours after i.t. administration over time.

[6] = system: cold allodynia induced by oxaliplatin; experiment: Cold allodynia induced by oxaliplatin, drug on fourth day after oxaliplatin (acetone test); format: in vivo, mouse; conditions: 10 mg/kg, single oral administration; for suppression of cold allodynia by oxaliplatin: fourth day after oxaliplatin
Procedure: Oxaliplatin was dissolved in 5% glucose-containing saline and intraperitoneally administered at a dose of 2 mg/kg. A drug was administered on the fourth day after oxaliplatin administration. Male ddY mice (6 to 12 weeks old) were used. The axis of ordinates is the duration of the behavior of licking and paw waving after the application of an acetone drop (10 L) to the footpad of a hind paw.

[7] = system: cold allodynia induced by oxaliplatin; experiment: Onset of cold allodynia induced by oxaliplatin, drug given around oxaliplatin administration; format: in vivo, mouse; conditions: 10 mg/kg oral
Procedure: Oxaliplatin was dissolved in 5% glucose-containing saline and intraperitoneally administered at a dose of 2 mg/kg. Drug administration (oral administration) was performed 30 minutes before oxaliplatin administration (FIG. 7A); or 3 times: 30 minutes before oxaliplatin administration, 2.5 hours after the administration, and 5.5 hours after the administration (FIG. 7B). Male ddY mice (6 to 12 weeks old) were used. The axis of ordinates is the duration of the behavior of licking and paw waving after the application of an acetone drop (10 μL) to the footpad of a hind paw.

[8] = system: mechanical allodynia induced by spinal nerve injury; experiment: Spinal nerve ligation (SNL) model, repeated intraperitoneal administration, mechanical allodynia; format: in vivo, mouse; conditions: for suppression of the onset of mechanical allodynia: 30 mg/kg i.p. before ligation and once a day for 7 days
Procedure: as §1
Spinal nerve ligation (SNL) models in which the fourth lumbar cord spinal nerves of male ddY (6 to 12 weeks old) were ligated with silk thread were used. A solvent (VEH: 10% DMSO-containing saline). PA-8, the compound 2j or the compound 20 was intraperitoneally administered (30 mg/kg) 5 to 10 minutes before the ligation, and once a day for 7 days thereafter. The method of causing a mechanical stimulus is the same as that of Example 5, and data from the first day after the ligation (D1) are data 1 hour after the administration of VEH or the drugs.

[9] = system: pain-like behavior induced by formalin; experiment: Pain-like behavior induced by formalin; format: in vivo, mouse; conditions: 0.1 to 10 nmol i.t.
Procedure: The first phase is direct action of formalin on sensory nerves (to around 10 minutes after formalin administration). In the second phase (from around 10 minutes to 60 minutes after formalin administration), hypersensitization formed in spinal dorsal horn cells during the first phase (a type of plastic phenomenon in the nervous system also called central sensitization) is a main cause, and inflammatory reaction at the site of formalin administration contributes importantly.

[10] = system: spontaneous pain-like behavior induced by PACAP intrathecal administration; experiment: Spontaneous pain-like behavior induced by PACAP intrathecal administration; format: in vivo, mouse; conditions: for suppression of PACAP-induced spontaneous pain-like behavior: simultaneous i.t. with PACAP (100 pmol), counted for 30 minutes
Procedure: When PACAP (100 pmol/5 L) is intrathecally administered to a mouse in a single dose (single i.t. injection), spontaneous pain-like behavior in which the mouse licks or bites the rear half of the body occurs about 5 minutes after the administration (and continues for several hours) (Ohnou et al. J. Pharmacol. Sci. 130, 194-203, 2016). […] Male ddY mice (6 to 12 weeks old) were used, and the behaviors were taken on video. The number of times of spontaneous pain-like behaviors for 30 minutes after the administration was counted.

[11] = 30 minutes before oxaliplatin or 3 administrations

O=C(NCCc1c[nH]cn1)C1CC(=O)N(c2n[nH]c3ccccc23)C1 (centres unmarked) [PA-9, reference compound]
analgesic effect [1]: have analgesic effect
suppression of long-term mechanical allodynia induced by PACAP ([2]; 100 pmol, FIG. 5C): strongly suppressed
suppression of CREB phosphorylation by PACAP (1 nM) [3]: suppressed CREB phosphorylation by PACAP (1 nM) depending on the concentration
PAC1 receptor antagonistic action [4]: have PAC1 receptor antagonistic action
mechanical threshold 24 hours after the administration ([5]; 100 pmol i.t.): maintained the mechanical threshold highly significantly
anti-mechanical allodynia effect [5]: anti-mechanical allodynia effect equivalent to PA-8 and the compound 2j

CCOc1cccc(C2CC(=O)Nc3nc(N)[nH]c(=O)c32)c1 (centres unmarked) [compound 2j, 2-Amino-5-(3-ethoxyphenyl)-5,8-dihydro-3H,6H-pyrido[2,3-d]pyrimidine-4,7-dione]
suppression of cold allodynia by oxaliplatin [6]: suppressed cold allodynia by oxaliplatin significantly over 4 to 5 hours
suppression of the onset of cold allodynia by oxaliplatin [7, 11]: suppressed the onset of cold allodynia by oxaliplatin significantly
suppression of the onset of mechanical allodynia [8]: did not suppress the onset of mechanical allodynia
suppression of long-term mechanical allodynia induced by PACAP ([2]; 10 or 100 pmol, FIGS. 5A and B): strongly suppressed
suppression of CREB phosphorylation by PACAP (1 nM) [3]: suppressed depending on the concentration
anti-mechanical allodynia effect [5]: suppressed the onset of mechanical allodynia significantly
maximum effect compared with compound 2o ([5]; 100 pmol i.t., 3 hours after the administration): significantly inferior as compared with the compound 2o
effect on first phase reaction [9]: did not affect the first phase reaction
effect on second phase reaction [9]: did not affect the second phase reaction
effect on PACAP response compared with PA-8 ([10]; 10 pmol i.t., versus PA-8 10 pmol): significantly stronger than that of PA-8 (10 pmol)
suppression of PACAP-induced spontaneous pain-like behavior ([10]; 10 pmol): suppressed the PACAP response significantly
suppression of PACAP-induced spontaneous pain-like behavior ([10]; 100 pmol): suppressed the PACAP response significantly

Nc1nc2c(c(=O)[nH]1)C(c1cccc(OC(F)(F)F)c1)CC(=O)N2 (centres unmarked) [compound 2o, 2-Amino-5-(3-trifluoromethoxyphenyl)-5,8-dihydro-3H,6H-pyrido[2,3-d]pyrimidine-4,7-dione]
time of onset of effect on cold allodynia [6]: effective from an earlier period of time (the first hour after administration)
suppression of cold allodynia by oxaliplatin [6]: suppressed cold allodynia by oxaliplatin significantly over 4 to 5 hours
suppression of the onset of cold allodynia by oxaliplatin [7, 11]: suppressed the onset of cold allodynia by oxaliplatin significantly
suppression of the onset of cold allodynia by oxaliplatin ([7]; three administrations (FIG. 7B)): suppressed the onset almost completely
suppression of the onset of mechanical allodynia [8]: suppressed the onset of mechanical allodynia still more strongly
mechanical threshold level during administration ([8]; 30 mg/kg i.p. once a day): maintained the mechanical threshold at a level equivalent to an uninjured side
mechanical threshold after discontinuation of administration ([8]; 30 mg/kg i.p., discontinued on the seventh day, versus VEH group): maintained the mechanical threshold highly significantly for at least 7 days thereafter
suppression of long-term mechanical allodynia induced by PACAP ([2]; 10 or 100 pmol, FIGS. 5A and B): strongly suppressed
suppression of CREB phosphorylation by PACAP (1 nM) [3]: suppressed CREB phosphorylation by PACAP (1 nM)
effect of suppressing CREB phosphorylation compared with basic compound [3]: significantly stronger effect of suppressing CREB phosphorylation
anti-mechanical allodynia effect [5]: suppressed the onset of mechanical allodynia significantly
effect on first phase reaction [9]: did not affect the first phase reaction
effect on second phase reaction [9]: suppressed the second phase reaction significantly depending on the concentration
suppression of PACAP-induced spontaneous pain-like behavior ([10]; 10 pmol): did not exhibit a significant suppressing effect
suppression of PACAP-induced spontaneous pain-like behavior ([10]; 100 pmol): suppressing effect equivalent to PA-8 and the compound 2j

O=C(NCCc1c[nH]cn1)C1CC(=O)N(c2n[nH]c3c(Cl)cccc23)C1 (centres unmarked) [compound 3d, N-[2-(1H-imidazol-4-yl)ethyl]-1-(7-chloro-1H-indazol-3-yl)-5-oxo-3-pyrrolidinecarboxamide]
suppression of long-term mechanical allodynia induced by PACAP ([2]; 100 pmol, FIG. 5C): strongly suppressed
suppression of CREB phosphorylation by PACAP (1 nM) [3]: suppressed CREB phosphorylation by PACAP (1 nM) depending on the concentration
effect of suppressing CREB phosphorylation compared with basic compound [3]: significantly stronger effect of suppressing CREB phosphorylation
mechanical threshold 24 hours after the administration ([5]; 100 pmol i.t.): maintained the mechanical threshold highly significantly
anti-mechanical allodynia effect [5]: anti-mechanical allodynia effect equivalent to PA-8 and the compound 2j
